The test system of the data set is human SMAD7 mRNA. As to the kind of experiment: Antisense inhibition of human SMAD7 mRNA expression in Hep3B cells by 3-10-3 cEt gapmers, 10,000 nM, electroporation (Example 2). The data set is classed as cell-based. The conditions noted are these: approximately 24 hours. Put shortly:
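Percent inhibition of SMAD7 mRNA, relative to untreated cells, after ~24 h exposure of electroporated Hep3B cells to 10,000 nM cEt gapmer; levels by qRT-PCR, corrected for total RNA.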

The mark [1] stands for this setting: Hep3B cells, electroporation with 10,000 nM antisense oligonucleotide, primer probe set RTS5062, relative to untreated control cells.
[2] abbreviates: Hep3B cells, electroporation, 10,000 nM antisense oligonucleotide, RTS5062, relative to untreated control cells.
Where [3] appears, read: Hep3B cells, electroporation with 10,000 nM antisense oligonucleotide, SMAD7 mRNA by RT-PCR (RTS5062), relative to untreated control cells.
Where [4] appears, read: Hep3B cells, electroporation with 10,000 nM antisense oligonucleotide, RTS5062, percent inhibition of SMAD7 mRNA relative to untreated control cells.
Where [5] appears, read: Hep3B cells, 10,000 nM antisense oligonucleotide, electroporation, RT-PCR primer probe set RTS5062, relative to untreated control cells.
Setting [6] is: SMAD7 mRNA, Hep3B cells, 10,000 nM antisense oligonucleotide, electroporation, primer probe set RTS5062, relative to untreated control cells.

Strand notation (5' to 3'): a small letter for the sugar, then the base; units joined by * are phosphorothioate-linked, units joined directly phosphodiester-linked; [ ] holds rarer units or linkages, { } end groups; capitals alone tell only the bases. k = constrained ethyl (cEt); [5mC] = 5-methylcytosine; d = 2'-deoxy (DNA)

Turning to “799188 (antisense kT*kG*k[5mC]*dT*dT*d[5mC]*dT*d[5mC]*dT*dT*dG*dT*dT*k[5mC]*kA*kT) [compound 799188]”, under setting [1], the “% inhibition of SMAD7 mRNA expression” value was determined as 43%.
For the substance “799287 (antisense kT*k[5mC]*kT*dG*d[5mC]*dT*d[5mC]*dA*dG*dG*d[5mC]*dT*dT*k[5mC]*kA*k[5mC]) [compound 799287]”, the “% inhibition of SMAD7 mRNA expression” value under setting [2] is on record as 15%.
Turning to “790695 (kT*kG*kA*dA*dA*dT*dG*dG*dT*dG*d[5mC]*dT*d[5mC]*kT*kG*k[5mC]; antisense) [compound 790695]”, the “% inhibition of SMAD7 mRNA expression” value under setting [1] was found to be 62%.
As a reminder, the % Inhibition is how much of the control response was suppressed. For “798904 (kT*kT*kG*dA*dA*dG*dA*dT*dG*dA*d[5mC]*d[5mC]*dT*k[5mC]*kT*kA; antisense) [compound 798904]”, under setting [3], the “% Inhibition” value was found to be 23%.
On the same count and under the same terms, for “800024 (k[5mC]*kA*kA*dG*dG*dA*d[5mC]*dT*dA*dA*dG*dG*dA*kA*kG*kA; antisense) [compound 800024]” the value was 18%.
Same read-out and setting: under “799485 (antisense kA*kG*k[5mC]*d[5mC]*dA*d[5mC]*dT*d[5mC]*d[5mC]*d[5mC]*d[5mC]*dG*d[5mC]*k[5mC]*kA*k[5mC]) [compound 799485]” stands 0%.
In the case of “799524 (antisense kA*kT*k[5mC]*dA*dA*dG*dG*dG*d[5mC]*dA*dG*dA*dA*kG*kG*k[5mC]) [compound 799524]”, the “% Inhibition” value under setting [4] stood at 23%.
As for “798880 (kT*k[5mC]*k[5mC]*dA*d[5mC]*dG*dG*d[5mC]*dT*dG*d[5mC]*dT*dG*k[5mC]*kA*kT; antisense) [compound 798880]”, the “% Inhibition” value under setting [3] came to 37%.
Turning to “799990 (kT*kT*kG*d[5mC]*dA*d[5mC]*d[5mC]*dT*dG*dG*d[5mC]*dA*dA*k[5mC]*k[5mC]*kT; antisense) [compound 799990]”, the “% Inhibition” value under setting [5] worked out at 0%.
As for “799489 (antisense kT*k[5mC]*kT*dA*dA*dA*d[5mC]*d[5mC]*dA*dT*dT*dT*dT*kG*kA*kT) [compound 799489]”, under setting [3], the “% Inhibition” value came to 0%.
In the case of “830020 (antisense kG*kA*kA*dA*dG*dG*d[5mC]*d[5mC]*d[5mC]*dA*dA*d[5mC]*dA*kG*k[5mC]*k[5mC]) [compound 830020]”, the “% Inhibition” value under setting [3] was determined as 23%.
On to “799393 (antisense kT*kG*k[5mC]*dT*dT*dT*dG*d[5mC]*dG*dG*dG*d[5mC]*d[5mC]*kA*k[5mC]*kT) [compound 799393]”, for which the “% Inhibition” value under setting [3] is on record as 56%.
Take “799103 (antisense k[5mC]*k[5mC]*kG*dG*dG*dA*dA*dA*dA*dA*d[5mC]*d[5mC]*dT*kG*kA*kT) [compound 799103]”: under setting [1], the “% inhibition of SMAD7 mRNA expression” value worked out at 12%.
As for “799242 (k[5mC]*kG*kT*dG*dA*dT*dT*d[5mC]*dT*d[5mC]*d[5mC]*dG*dT*kA*kT*kT; antisense) [compound 799242]”, under setting [1], the “% inhibition of SMAD7 mRNA expression” value was found to be 0%.
With “830195 (antisense kA*kA*k[5mC]*d[5mC]*dT*dT*dT*dT*d[5mC]*d[5mC]*dG*dG*dT*kA*kT*kT) [compound 830195]”, the “% Inhibition” value under setting [3] was found to be 35%.
Take “798892 (k[5mC]*k[5mC]*k[5mC]*d[5mC]*dA*dG*d[5mC]*d[5mC]*d[5mC]*dT*dT*d[5mC]*dA*k[5mC]*kA*kA; antisense) [compound 798892]”: the “% Inhibition” value under setting [5] was 39%.
As to “799272 (antisense kA*kT*kT*dA*d[5mC]*dT*d[5mC]*dG*dA*dG*dT*d[5mC]*dA*kG*kG*k[5mC]) [compound 799272]”, the “% Inhibition” value under setting [4] is given as 55%.
On to “829872 (antisense kT*kG*kT*d[5mC]*d[5mC]*dA*dG*dT*dG*dT*dG*dG*d[5mC]*kG*kG*kA) [compound 829872]”, for which the “% Inhibition” value (SMAD7 mRNA, Hep3B cells, electroporation with 10,000 nM antisense oligonucleotide, primer probe set RTS5062, relative to untreated control cells) came to 50%.
Consider “799593 (kG*kA*kA*dG*dG*dA*dG*d[5mC]*dT*d[5mC]*dA*dA*dA*k[5mC]*kT*kT; antisense) [compound 799593]”, for which, under setting [2], the “% inhibition of SMAD7 mRNA expression” value came to 0%.
Consider “800086 (antisense kA*kG*k[5mC]*dA*dG*d[5mC]*dA*dG*d[5mC]*d[5mC]*d[5mC]*dT*dG*kT*kA*k[5mC]) [compound 800086]”, for which the “% Inhibition” value under setting [3] was determined as 40%.
Take “799883 (kT*k[5mC]*kT*dA*dG*dA*dG*dG*dG*dT*dA*dG*dG*kA*kA*kA; antisense) [compound 799883]”: under setting [3], the “% Inhibition” value stood at 9%.
On to “798868 (kA*k[5mC]*k[5mC]*dT*dT*dG*dT*dG*dT*dA*d[5mC]*d[5mC]*dA*kA*k[5mC]*kA; antisense) [compound 798868]”, for which the “% Inhibition” value under setting [3] is on record as 48%.
For “799648 (antisense kA*kT*kG*dA*dA*dA*dG*d[5mC]*d[5mC]*d[5mC]*d[5mC]*d[5mC]*dA*kG*kA*k[5mC]) [compound 799648]”, the “% Inhibition” value under setting [4] worked out at 9%.
For the substance “799252 (antisense k[5mC]*kA*kA*dA*dG*dG*dT*dG*d[5mC]*dG*d[5mC]*dG*dG*k[5mC]*k[5mC]*kA) [compound 799252]”, the “% Inhibition” value under setting [3] is given as 41%.
On to “790611 (kG*k[5mC]*kT*dT*dA*dT*dG*dT*dT*dA*dA*dA*dG*kT*k[5mC]*kT; antisense) [compound 790611]”, for which, under setting [6], the “% Inhibition” value amounted to 59%.
As to “798831 (kA*kT*kA*dG*dA*dA*dG*dA*dT*dA*dT*d[5mC]*d[5mC]*kA*kG*kA; antisense) [compound 798831]”, under setting [3], the “% Inhibition” value is recorded as 0%.
“799051 (antisense kT*kG*kG*dA*d[5mC]*dA*dG*dG*d[5mC]*d[5mC]*d[5mC]*dG*dT*kG*kT*k[5mC]) [compound 799051]”: the “% inhibition of SMAD7 mRNA expression” value under setting [1] came out at 32%.
In the case of “799720 (antisense kA*k[5mC]*kA*d[5mC]*dA*d[5mC]*dA*dG*d[5mC]*dA*dG*dA*dA*kG*kG*k[5mC]) [compound 799720]”, the “% inhibition of SMAD7 mRNA expression” value under setting [2] came out at 40%.
“800087 (antisense kT*kA*kA*dT*dA*dG*dG*dA*dA*dA*dA*d[5mC]*dA*kG*kT*k[5mC]) [compound 800087]”: under setting [3], the “% Inhibition” value was determined as 0%.
On to “799761 (antisense kT*kG*kT*d[5mC]*dA*dT*dT*dA*dG*dA*dA*d[5mC]*dA*kA*kT*kG) [compound 799761]”, for which, under setting [4], the “% Inhibition” value was 35%.
Turning to “790458 (k[5mC]*kG*k[5mC]*d[5mC]*dA*dG*dT*d[5mC]*dT*d[5mC]*d[5mC]*d[5mC]*dG*kG*kA*kG; antisense) [compound 790458]”, the “% Inhibition” value under setting [3] amounted to 0%.
Consider “829759 (antisense k[5mC]*k[5mC]*kG*d[5mC]*d[5mC]*dA*d[5mC]*d[5mC]*dG*dG*d[5mC]*d[5mC]*d[5mC]*k[5mC]*kA*kT) [compound 829759]”, for which, under setting [6], the “% Inhibition” value is 51%.
As for “799934 (antisense kA*k[5mC]*kT*dT*dT*dT*dT*dA*d[5mC]*dT*d[5mC]*dT*dG*kT*k[5mC]*kT) [compound 799934]”, under setting [5], the “% Inhibition” value is recorded as 61%.
Turning to “798917 (kG*k[5mC]*kT*d[5mC]*dA*d[5mC]*dG*d[5mC]*dT*d[5mC]*dT*dG*dT*k[5mC]*k[5mC]*k[5mC]; antisense) [compound 798917]”, under setting [3], the “% Inhibition” value was found to be 0%.
The same measure, in the same setting: under “798715 (antisense kG*k[5mC]*k[5mC]*d[5mC]*dG*dG*dG*d[5mC]*d[5mC]*dG*d[5mC]*d[5mC]*dG*k[5mC]*k[5mC]*kA) [compound 798715]” stands 0%; under “830038 (antisense k[5mC]*k[5mC]*kT*dA*dT*dT*dG*dG*d[5mC]*dT*dG*dA*dT*k[5mC]*kT*kG) [compound 830038]”, 50%.
Regarding “799217 (kG*kT*kT*dA*dT*dT*dT*dG*d[5mC]*dA*dT*dT*dT*kA*kT*kA; antisense) [compound 799217]”, under setting [1], the “% inhibition of SMAD7 mRNA expression” value is 0%.

Values taken from patent publication US10517889B2, “Modulators of SMAD7 expression” (Ionis Pharmaceuticals, Inc., priority 2017, dated 2019).
